We go through three compounds from patent publication US7462464B1, “Method for the detection of antimicrobial residues in food and bodily fluid samples” (priority 1999, dated 2008).

Holding throughout (format): cell-based
The test system of test [1] is Bacillus stearothermophilus. Put plainly: Microbial inhibition test ampoules (EP 0005891), spiked raw milk. The settings on record: with or without bovine albumine 6% or heating 10 minutes at 80° C., controls yellow after 160-185 minutes. As to the method:
Raw milk samples of negative cows were obtained from a farmer (negative in the sense of the presence of antibiotics). Spiked samples were prepared by adding Penicillin G to the milk (0, 4 and 6 ppb). To a part of said samples the thickening agent bovine albumine (Sigma) was added to a final concentration of 6%. The samples were then examined using microbial inhibition test ampoules produced according to the method described in EP 0005891 with the nutrients in the agar. 100 μl of milk was added to the test ampoules. A part of the test ampoules with the raw milk sample was heated for 10 minutes at 80° C. as described in Example 1. All experiments were executed in five fold. The tests were further incubated following the methods described in Example 1.

The test system of test [2] is Bacillus stearothermophilus. The test is described as follows: Delvotest microbial inhibition test, spiked egg samples. The settings on record: heated 10 minutes at 80° C., incubated at 64° C., read after 140 minutes. As to the method: A hole of approximately 1-2 cm2 was made in the egg, the egg yolk was pricked and the egg was placed with the hole down on a bottle allowing the egg white and egg yolk to drip into the bottle. After the egg had emptied, the bottle was closed and the sample was homogenized by shaking. To inactivate the natural inhibiting compounds present in the egg sample, 100 μl of each of the 5 samples was added on Delvotest® ampoules. The test was produced according to the methods described in EP 0005891 with the nutrients present in the agar. After heating for 10 minutes at 80° C. in a waterbath, the ampoules were immediately placed in a waterbath at 64° C. and incubated following the instructions of the producer. […] Egg samples were obtained according to the method described in Example 3. The samples were spiked by adding Penicillin G (0 and 4 ppb) or Sulphadiazine (0 and 100 ppb). The egg samples were added to Delvotest® ampoules (see Example 3) according to the method described in this invention: heated for 10 minutes at 80° C., and then, immediately placed in a waterbath at 64° C. and incubated following the instructions of the manufacturer.

Test [3] deals with Bacillus stearothermophilus. Put plainly: Premi Test microbial inhibition test, spiked bovine kidney pre-urine. Conditions: part of sample with methylcellulose 1.5%, controls yellow after 185 minutes. An excerpt: Fresh kidneys of 7 negative (negative in the sense of the presence of antibiotics) cows were obtained from a slaughterhouse. To obtain samples for testing for the presence or absence of antimicrobial drug residues, the rosettes of the kidneys were divided into pieces. The pieces were gently squeezed using a garlic press to obtain pre-urine.
(§1) The samples were then examined using microbial inhibition test ampoules produced according to the methods described in EP 0005891 with the nutrients present in the agar. The said test is also known as Premi®Test (commercially available from DSM N.V., Delft, The Netherlands).
100 μl of each of the 7 squeezed samples (pre-urine) was added to the test ampoules and heated for 10 minutes at 80° C. in a waterbath, the ampoules were immediately placed in a waterbath of 64° C. and incubated following the instructions of the manufacturer.
The experiment was executed as described in Example 1. However now to a part of the pre-urine sample the thickening agent methylcellulose (4000 c.p.i., Sigma) was added to a final concentration of 1.5%. Also spiked samples were prepared following the method described in Example 6.

Test [4] has as its system Bacillus stearothermophilus. The test is described as follows: Premi Test microbial inhibition test, spiked chicken meat juice with thickening agent. As to the method:
as §1
Fresh chicken breast meat of a negative chicken was obtained from a slaughterhouse (negative in the sense of the presence of antibiotics). To obtain meat fluid for further testing pieces of meat were heated for 10 minutes at 64° C. and gently sqeezed using a garlic press. Spiked samples were prepared by adding Amoxicillin (0, 5 and 10 ppb), Oxytetracycline (0, 75 and 100 ppb) or Sulphadiazine (0, 75 and 100 ppb) to the meat juice.
To a part of said samples the thickening agent methylcellulose (4000 c.p.i., Sigma) was added to a final concentration of 1.5%.
100 μl of each sample was added to the Premi®Test ampoules (in duplicate) following the procedure described in Example 1. However, since a thickening agent was added, the pre-incubation step was not required anymore. Also the heating of the samples for 10 minutes at 80° C. was not required for this specific sample.
In addition a similar experiment was executed. However, now samples containing 10 ppb of Amoxycillin or 200 ppb of Oxytetracycline were prepared and the thickening agent bovine albumine (Sigma) was added to a final concentration of 6%.

Regarding `CC1(C)S[C@@H]2[C@H](NC(=O)Cc3ccccc3)C(=O)N2[C@H]1C(=O)O` [Penicillin G], the “test colour / result (purple = positive)” value in test [1] (raw milk spiked with 4 ppb) and in test [1] (raw milk spiked with 6 ppb) was “remained purple (positive)” throughout. In test [2] (egg sample spiked with 4 ppb), the “test colour / result (purple = positive, growth of test organism inhibited)” value is “remained purple (positive)”.
On to `CC1(C)S[C@@H]2[C@H](NC(=O)[C@H](N)c3ccc(O)cc3)C(=O)N2[C@H]1C(=O)O` [Amoxicillin], for which the “test colour / result (purple = positive)” value in test [3] (pre-urine spiked with 5 ppb) is listed as “remained purple (positive)”; in test [3] (pre-urine spiked with 10 ppb), “remained purple (positive)”; in test [4] (chicken meat juice spiked with 5 ppb, part of samples with methylcellulose 1.5%, after 160 minutes) it was “remained purple (positive)”; in test [4] (chicken meat juice spiked with 10 ppb, bovine albumine 6%, after 165 minutes), “remained purple”; in test [4] (chicken meat juice spiked with 10 ppb, part of samples with methylcellulose 1.5%, after 160 minutes), “remained purple (positive)”.
Take `Nc1ccc(S(=O)(=O)Nc2ncccn2)cc1` [Sulphadiazine]: the “test colour / result (purple = positive)” value is on record as “remained purple (positive)” in test [3] (pre-urine spiked with 75 ppb); “remained purple (positive)” in test [3] (pre-urine spiked with 100 ppb); “remained purple (positive)” in test [4] (chicken meat juice spiked with 75 ppb, part of samples with methylcellulose 1.5%, after 160 minutes); “remained purple (positive)” in test [4] (chicken meat juice spiked with 100 ppb, part of samples with methylcellulose 1.5%, after 160 minutes). Also, the “test colour / result (purple = positive, growth of test organism inhibited)” value in test [2] (egg sample spiked with 100 ppb) is recorded as “remained purple (positive)”.
